SMILES strings stand for the structures. In brackets after ≈: the same amount, converted by molar mass.

For this test, the system named is Mycobacterium tuberculosis. Nature of the test: Antitubercular activity against Mycobacterium tuberculosis H37Rv. The format is functional.
One may read the MIC as the least concentration at which growth counts as inhibited. The low end stands for a more susceptible organism, the high end for a less susceptible organism. `CCCCCCCCCCCCNCCNc1c(F)cc2c(=O)c(C(=O)O)cn(C3CC3)c2c1OC` registered an MIC of 1.25 µg/mL (≈ 2.48 µM).
As for `CCCCCCCCCCCCNCCCNc1c(F)cc2c(=O)c(C(=O)O)cn(C3CC3)c2c1OC`, the figure is 0.62 µg/mL (≈ 1.2 µM); as for `CCCCCCCCCCNCCCNc1c(F)cc2c(=O)c(C(=O)O)cn(C3CC3)c2c1OC`, 0.31 µg/mL (≈ 0.633 µM); as for `CO[C@H]1/C=C/O[C@@]2(C)Oc3c(C)c(O)c4c(O)c(c(/C=N/N5CCN(C)CC5)c(O)c4c3C2=O)NC(=O)/C(C)=C\C=C\[C@H](C)[C@H](O)[C@@H](C)[C@@H](O)[C@@H](C)[C@H](OC(C)=O)[C@@H]1C` [RIFAMPIN], 1 µg/mL (≈ 1.22 µM).
As for `CCCCC(CC)CNCCCNc1c(F)cc2c(=O)c(C(=O)O)cn(C3CC3)c2c1OC` (centres undefined), the figure is 2.5 µg/mL (≈ 5.42 µM); as for `COc1c(N2CCNC(C)C2)c(F)cc2c(=O)c(C(=O)O)cn(C3CC3)c12` (centres undefined) [GATIFLOXACIN], 0.1 µg/mL (≈ 0.266 µM); as for `CCCCCCNCCCNc1c(F)cc2c(=O)c(C(=O)O)cn(C3CC3)c2c1OC`, 50 µg/mL (≈ 115 µM).
As for `CCCCCCCCCCCCCCNCCCNc1c(F)cc2c(=O)c(C(=O)O)cn(C3CC3)c2c1OC`, the figure is 0.62 µg/mL (≈ 1.14 µM); as for `CCCCCCCCNCCCNc1c(F)cc2c(=O)c(C(=O)O)cn(C3CC3)c2c1OC`, 1.25 µg/mL (≈ 2.71 µM).
`CCCCCCCCCCCCCCNCCNc1c(F)cc2c(=O)c(C(=O)O)cn(C3CC3)c2c1OC` returned an MIC of 6.25 µg/mL (≈ 11.8 µM).
The figure for `CCCCC(CC)CNCCNc1c(F)cc2c(=O)c(C(=O)O)cn(C3CC3)c2c1OC` (centres undefined) is 0.62 µg/mL (≈ 1.39 µM); for `CCCCCCNCCNc1c(F)cc2c(=O)c(C(=O)O)cn(C3CC3)c2c1OC` it is 5 µg/mL (≈ 11.9 µM).
As for `CCCCCCCCCCNCCNc1c(F)cc2c(=O)c(C(=O)O)cn(C3CC3)c2c1OC`, the figure is 0.62 µg/mL (≈ 1.3 µM); as for `CCCCCCCCNCCNc1c(F)cc2c(=O)c(C(=O)O)cn(C3CC3)c2c1OC`, 12.5 µg/mL (≈ 27.9 µM).

For the origin of these results see ChEMBL document CHEMBL1139821, “Synthesis and antitubercular activity of lipophilic moxifloxacin and gatifloxacin derivatives” (2007).
